We go through one compound from ChEMBL document CHEMBL1133554, “Synthesis, structure-activity relationships, and pharmacological profile of 9-amino-4-oxo-1-phenyl-3,4,6,7-tetrahydro[1,4]diazepino[6, 7,1-hi]indoles: discovery of potent, selective phosphodiesterase type 4 inhibitors” (J Med Chem, 2000).

A short description of test [1]: In vivo inhibition of LPS-stimulated TNF-alpha release in Wistar rats at 10 mg/kg oral dose. The class given is functional. Conditions: Rattus norvegicus.
The nature of test [2]: In vitro inhibition of TNF-alpha release from human peripheral blood monocytes. The class given is functional.
The target in test [3] is T1, Phosphodiesterase 4 (Homo sapiens, UniProt P27815+Q08499+Q07343+Q08493). Nature of the test: PDE4-related emetic activity in ferrets after intravenous administration at 40 mg/kg. The class given is functional, organism-based. More on the design: dose 40 mg/kg. The note with it: Mustela putorius furo, target entry is the homologue from another species.
For a further test, the target named is Phosphodiesterase 3 (Homo sapiens, UniProt Q14432+Q13370). Nature of the test: Inhibition of phosphodiesterase 3 (PDE3) isolated from the dog aorta. The note with it: target entry is the homologue from another species. The class given is protein assay, Canis lupus familiaris.
Test [4] addresses Phosphodiesterase, PDE1/PDE5 (Homo sapiens, UniProt O76074+P54750+Q01064+Q14123). Put plainly: Inhibition of phosphodiesterase 1/5 isozyme (PDE1/5) mixture isolated from the guinea pig trachea. Also noted: species or system Cavia porcellus. The note with it: target entry is the homologue from another species.
Another test concerns Rattus norvegicus. Put plainly: In vivo inhibition of antigen induced eosinophil recruitment in Brown-Norvway Rats at 10 mg/kg peroral dose. The class given is functional. Conditions: route oral.
Test [5] has as its target T1, Phosphodiesterase 4. Nature of the test: Inhibition of phosphodiesterase type 4 isozyme (PDE4) from the U937 human cell line. In kind it is cell-based. The note with it: u-937.
A short description of test [6]: In vitro inhibition of TNF-alpha-release from human whole blood. The class given is functional.

As to `Nc1cc2c3c(c1)C(c1ccccc1)=N[C@@H](NC(=O)c1cccnc1)C(=O)N3CC2`, the ED50 (usually the dose at which the effect has come halfway, by size or by number of responders) in test [1] turned out to be 2.8 mg/kg; with Rattus norvegicus it was 3.2 mg/kg. Besides, the IC50 – broadly, the midpoint of a concentration-inhibition curve – is 340 nM in test [2]; above 100000 nM against Phosphodiesterase 3; above 100000 nM in test [4]; 270 nM against Phosphodiesterase 4 [5]; 1240 nM in test [6]. Moreover, the R+V on Phosphodiesterase 4 [3] is 0 90 min.
